Experimental data from ChEMBL document CHEMBL1201862, “PubChem BioAssay data set” (2004).
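These data come from cells grown in 96-well plates and exposed to compound for 48 hours at five concentrations. Here, GI50 denotes the concentration required for 50% inhibition of growth.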 The source made the active and inactive calls. Cut-off read from the data, not from the text of the source: active = GI50 up to about 1.1 µM and inactive = higher.

Columns and labels:
Assay in all cases: DTP human tumour cell line panel, 48 h
Malme-3M = system: Malme-3M
K562 = system: K562
SK-MEL-5 = system: SK-MEL-5
M14 = system: M14
CCRF-CEM = system: CCRF-CEM
SR = system: SR
U-251 = system: U-251
SNB-75 = system: SNB-75
A549 = system: A549
SN12C = system: SN12C
OVCAR-4 = system: OVCAR-4
HCT-15 = system: HCT-15
EKVX = system: EKVX
RPMI-8226 = system: RPMI-8226
SF-539 = system: SF-539
SK-OV-3 = system: SK-OV-3
MCF7 = system: MCF7
T47D = system: T47D
MDA-MB-435 = system: MDA-MB-435

| Compound | GI50 (Malme-3M) | GI50 (K562) | GI50 (SK-MEL-5) | GI50 (M14) | GI50 (CCRF-CEM) | GI50 (SR) | GI50 (U-251) | GI50 (SNB-75) | GI50 (A549) | GI50 (SN12C) | GI50 (OVCAR-4) | GI50 (HCT-15) [µM] | GI50 (EKVX) | GI50 (RPMI-8226) | GI50 (SF-539) | GI50 (SK-OV-3) | GI50 (MCF7) | GI50 (T47D) | GI50 (MDA-MB-435) |
| --- | --- | --- | --- | --- | --- | --- | --- | --- | --- | --- | --- | --- | --- | --- | --- | --- | --- | --- | --- |
| COc1cc2c(c(OC)c1OC)-c1ccc(SC)c(=O)cc1[C@@H](NCc1ccc(F)cc1)CC2 | < 0.0075 µM (active) | < 0.0075 µM (active) | < 0.0075 µM (active) | < 0.0075 µM (active) | < 0.0075 µM (active) | < 0.0075 µM (active) | < 0.0075 µM (active) | 12.7 µM (inactive) | < 0.0075 µM (active) | < 0.0075 µM (active) | 11.6 µM (inactive) | < 0.0075 | 0.0693 µM (active) | < 0.0075 µM (active) | < 0.0075 µM (active) | < 0.0075 µM (active) |  |  |  |
| Cc1ccc(NC(=O)C(=O)C(C2C(C)CC(=O)C2CC(=O)O)[N+](=O)[O-])cc1 (configuration not stated) | > 100 µM (inactive) | > 100 µM (inactive) | > 100 µM (inactive) | > 100 µM (inactive) | > 100 µM (inactive) | > 100 µM (inactive) | > 100 µM (inactive) | > 100 µM (inactive) | > 100 µM (inactive) | > 100 µM (inactive) | > 100 µM (inactive) | > 100 | > 100 µM (inactive) | > 100 µM (inactive) | > 100 µM (inactive) | > 100 µM (inactive) |  |  |  |
| O=c1[nH]c(=O)n(C2CC(O)C(COP(=O)(O)OC3CC(n4cc(F)c(=O)[nH]c4=O)OC3COP(=O)(O)OC3CC(n4cc(F)c(=O)[nH]c4=O)OC3COP(=O)(O)OC3CC(n4cc(F)c(=O)[nH]c4=O)OC3COP(=O)(O)OC3CC(n4cc(F)c(=O)[nH]c4=O)OC3COP(=O)(O)OC3CC(n4cc(F)c(=O)[nH]c4=O)OC3COP(=O)(O)OC3CC(n4cc(F)c(=O)[nH]c4=O)OC3COP(=O)(O)OC3CC(n4cc(F)c(=O)[nH]c4=O)OC3COP(=O)(O)OC3CC(n4cc(F)c(=O)[nH]c4=O)OC3COP(=O)(O)OC3CC(n4cc(F)c(=O)[nH]c4=O)OC3CO)O2)cc1F (configuration not stated) |  | 2.36 µM (inactive) | 0.00824 µM (active) | < 0.005 µM (active) |  | < 0.005 µM (active) | 0.115 µM (active) | 0.353 µM (active) | < 0.005 µM (active) | 0.00828 µM (active) | 0.661 µM (active) | 0.309 |  | 0.232 µM (active) | < 0.005 µM (active) | 0.226 µM (active) | < 0.005 µM (active) | 0.0473 µM (active) | 0.422 µM (active) |
| COc1cc2[nH]c(=O)c3cc(C)cc4c(Cl)nc(c1OC)c2c43 | 18 µM (inactive) | 67.8 µM (inactive) | 55.6 µM (inactive) | > 100 µM (inactive) | 27.9 µM (inactive) |  | 38.6 µM (inactive) | 22.9 µM (inactive) | 45.7 µM (inactive) |  | > 100 µM (inactive) | > 100 | 18.1 µM (inactive) | 34.9 µM (inactive) | 29.9 µM (inactive) | 37.9 µM (inactive) | 32.9 µM (inactive) |  | 57.3 µM (inactive) |
| COC(=O)C1=C(O)C(C(=O)OC)[C@]2(O)[C@H](C(=O)OC)[C@H]1C[C@@H](c1ccc([N+](=O)[O-])cc1)[C@H]2C(=O)OC (some centres not stated) | 3.46 µM (inactive) | 10.2 µM (inactive) | 15.3 µM (inactive) | 15.7 µM (inactive) | 18 µM (inactive) |  | 11.5 µM (inactive) | 42.3 µM (inactive) | 21.3 µM (inactive) | 18.1 µM (inactive) | 34.8 µM (inactive) | 12.7 | 21.5 µM (inactive) |  | 30.5 µM (inactive) | 27.8 µM (inactive) |  | 38.2 µM (inactive) | 11 µM (inactive) |
| CCCCCCCCCCCCCCCCCC(CCCCCCCCCCCCCCCCC)OP(=O)(O)O | > 100 µM (inactive) | > 100 µM (inactive) | > 100 µM (inactive) | > 100 µM (inactive) | > 100 µM (inactive) | 42.9 µM (inactive) | > 100 µM (inactive) | > 100 µM (inactive) | > 100 µM (inactive) | > 100 µM (inactive) | > 100 µM (inactive) | > 100 | > 100 µM (inactive) | > 100 µM (inactive) |  | > 100 µM (inactive) |  |  |  |
| CCOC(=O)N(c1ccccc1)c1cc(=O)n2ccccc2n1 | > 100 µM (inactive) | > 100 µM (inactive) | > 100 µM (inactive) |  | > 100 µM (inactive) | > 100 µM (inactive) | > 100 µM (inactive) | > 100 µM (inactive) | > 100 µM (inactive) | > 100 µM (inactive) | > 100 µM (inactive) | > 100 | > 100 µM (inactive) | > 100 µM (inactive) | > 100 µM (inactive) | > 100 µM (inactive) | > 100 µM (inactive) | > 100 µM (inactive) | > 100 µM (inactive) |
| Cn1c(=O)oc2cc(C(O)CN3CCN(Cc4ccccn4)CC3)c(Cl)cc21 (configuration not stated) | > 100 µM (inactive) | > 100 µM (inactive) |  | > 100 µM (inactive) | > 100 µM (inactive) | 23.3 µM (inactive) | > 100 µM (inactive) | 77.3 µM (inactive) | > 100 µM (inactive) | > 100 µM (inactive) | > 100 µM (inactive) | > 100 | > 100 µM (inactive) |  | > 100 µM (inactive) | > 100 µM (inactive) | > 100 µM (inactive) | > 100 µM (inactive) | > 100 µM (inactive) |
| O=C1C=C(O)C(=Cc2c(O)cc(O)cc2O)C(O)=C1 | > 100 µM (inactive) | > 100 µM (inactive) | > 100 µM (inactive) | > 100 µM (inactive) | > 100 µM (inactive) | > 100 µM (inactive) | > 100 µM (inactive) | > 100 µM (inactive) | > 100 µM (inactive) | > 100 µM (inactive) | > 100 µM (inactive) | > 100 | > 100 µM (inactive) | > 100 µM (inactive) | > 100 µM (inactive) | > 100 µM (inactive) |  |  |  |
| CCCC(=O)Nc1ccc(O)c2c1C1CCCCCC21 (configuration not stated) | > 100 µM (inactive) | 64.9 µM (inactive) | 72.4 µM (inactive) | > 100 µM (inactive) | > 100 µM (inactive) | 82.2 µM (inactive) | > 100 µM (inactive) | 72.3 µM (inactive) | > 100 µM (inactive) | > 100 µM (inactive) | 68.5 µM (inactive) | 74 | > 100 µM (inactive) | 63.1 µM (inactive) |  | > 100 µM (inactive) |  |  |  |
| O=C1C/C(Br)=C\c2ccccc2-c2ccccc21 | 2.16 µM (inactive) | 1.06 µM (active) | 5.4 µM (inactive) | 2.07 µM (inactive) | 1.06 µM (active) | 0.405 µM (active) | 2.51 µM (inactive) | 2.26 µM (inactive) | 8.26 µM (inactive) | 2.04 µM (inactive) | 2.53 µM (inactive) | 1.56 | 9.82 µM (inactive) | 1.52 µM (inactive) | 2.16 µM (inactive) | 3.03 µM (inactive) |  |  |  |
| O=C(CCC(=O)Nc1ccc(Cl)cc1)CC(=O)c1ccc2ccccc2c1 | > 100 µM (inactive) | > 100 µM (inactive) | > 100 µM (inactive) | > 100 µM (inactive) | > 100 µM (inactive) | > 100 µM (inactive) | > 100 µM (inactive) | > 100 µM (inactive) | > 100 µM (inactive) | > 100 µM (inactive) | > 100 µM (inactive) | > 100 | > 100 µM (inactive) | > 100 µM (inactive) | > 100 µM (inactive) | > 100 µM (inactive) |  |  |  |
| C1OC1CN1CCN(CC2CO2)CC1 (configuration not stated) | > 100 µM (inactive) | 52.5 µM (inactive) | > 100 µM (inactive) | 54.6 µM (inactive) | 2.49 µM (inactive) | 2.42 µM (inactive) | 45.4 µM (inactive) | 38.2 µM (inactive) | 17.5 µM (inactive) | 32.1 µM (inactive) | > 100 µM (inactive) | > 100 | > 100 µM (inactive) | > 66.8 µM (inactive) | 37.4 µM (inactive) | > 96.8 µM (inactive) |  |  |  |
| CCOC(=O)C1N(S(=O)(=O)c2ccc(C)cc2)CCC12c1ccccc1NC2c1ccc(OC)c(OC)c1 (configuration not stated) | > 100 µM (inactive) | 34.2 µM (inactive) | > 100 µM (inactive) | > 100 µM (inactive) | 80.5 µM (inactive) | 22 µM (inactive) | > 100 µM (inactive) | > 100 µM (inactive) | > 100 µM (inactive) | > 100 µM (inactive) | > 100 µM (inactive) | > 100 | > 100 µM (inactive) | 13.9 µM (inactive) | > 100 µM (inactive) | > 100 µM (inactive) |  |  |  |
| C/C(=C1/CCCC2(N=NCC2c2ccccc2)C1=O)c1ccccc1 (configuration not stated) | 21 µM (inactive) | 12 µM (inactive) | 12.7 µM (inactive) | 13.8 µM (inactive) | 19.6 µM (inactive) | 14 µM (inactive) | 23.8 µM (inactive) | 30.3 µM (inactive) | 20.4 µM (inactive) | 40.5 µM (inactive) | 30.7 µM (inactive) | 35.1 | 28.3 µM (inactive) | 20 µM (inactive) | 41.2 µM (inactive) | 30.7 µM (inactive) |  |  |  |
| C#CCNC(=O)NCCCC(NC(C)=O)C(=O)NCc1ccccc1 (configuration not stated) | > 100 µM (inactive) | > 100 µM (inactive) | > 100 µM (inactive) | > 100 µM (inactive) | > 100 µM (inactive) | > 100 µM (inactive) | > 100 µM (inactive) | > 100 µM (inactive) | > 100 µM (inactive) | > 100 µM (inactive) | > 100 µM (inactive) | > 100 | > 100 µM (inactive) | > 100 µM (inactive) | > 100 µM (inactive) | > 100 µM (inactive) |  |  |  |
| CCOC(=O)C(OCC1CC=CCC1)Sc1ccccc1 (configuration not stated) | > 100 µM (inactive) | > 100 µM (inactive) | > 100 µM (inactive) | > 100 µM (inactive) | > 100 µM (inactive) | 1.77 µM (inactive) | > 100 µM (inactive) | > 100 µM (inactive) | > 100 µM (inactive) | > 100 µM (inactive) |  | > 100 | > 100 µM (inactive) | > 100 µM (inactive) | > 100 µM (inactive) | > 100 µM (inactive) |  |  |  |
